From patent US20160175221A1, “COMPOSITION FOR PREVENTING SKIN AGING CONTAINING ALOESIN OR DERIVATIVE THEREOF” (UNIVERA INC., priority 2013, published 2016)

Tests used:
[1] = test system: MMP-1 mRNA; assay: RT-PCR of MMP-1 mRNA in UVB irradiated fibroblasts; type: cell-based, human; settings: NHDFs after UVB irradiation, 0.01 μg/ml, 0.1 μg/ml and 1 μg/ml, 24 hours; ratio to GAPDH; FIG. 4
Description: (§1) After UVB irradiation, separation of RNA from aloesin treated normal human dermal fibroblasts (NHDFs) was performed using TRIZOL reagent (Invitrogen Life Technologies, Carlsbad, […]) according to the manufacturer's instructions. RNA (5 μg) was subjected to reverse transcription using 200 units of reverse transcriptase and 0.5 μg/μl of oligo-(dT) 15 primer (Bioneer Inc., Korea). The reaction was performed at 42° C. for 60 minutes, and then terminated by heating at 94° C. for five minutes. PCR amplification of cDNA template was performed using PCR premix (Bioneer Inc.) and the following primer pairs: MMP-1, forward 5′-ATTCTACTGATATCGGGGCTTTGA-3′, reverse 5′-ATGTCCTTGGGGTATCCGTGTAG-3′; procollagen type I, forward 5′-CTCGAGGTGGACACCACCCT-3′, reverse 5′-CAGCTGGATGGCCACATCGG-3′; and glyceraldehydes-3-phosphate […] (GAPDH), sense 5′-ACCACAGTCCATGCCATCAC-3′, antisense 5′-CCACCACCCTGTTGCTGTAC-3′. […]
(§2) To investigate mRNA levels of aloesin treated cells (24 hours after treatment), the concentration of MMP-1 and procollagen type I was measured in UVB irradiated normal human dermal fibroblasts. To quantify the data, the ratio of MMP-1/GAPDH and procollagen type I/GAPDH in normal human dermal fibroblasts was randomly set to 1.0, based on band signal intensity.

[2] = test system: normal human dermal fibroblasts (NHDFs); assay: MTT colorimetric assay, cytotoxicity of treated cells; settings: before and after UVB irradiation, 0.01 and 0.1 μg/ml before, 0.1 and 1 μg/ml after, 72 hours after treatment, FIG. 1
[3] = test system: procollagen type I mRNA; assay: RT-PCR of procollagen type I mRNA in UVB irradiated fibroblasts; type: cell-based, human; settings: NHDFs after UVB irradiation, 0.01 μg/ml, 0.1 μg/ml and 1 μg/ml, 24 hours; ratio to GAPDH; FIG. 4
Description: as §1, §2

[4] = test system: type I procollagen peptide (PIP); assay: PIP level in medium by procollagen type I C-peptide EIA kit; type: cell-based, human; settings: 0.01 μg/ml and 0.1 μg/ml
Description: (§3) The concentrations of MMP-1 and PIP in the medium were determined using commercially available enzyme-linked immunosorbent assay (ELISA) kits (Human Total MMP-1 Kit, R&D Systems, Inc., Minneapolis, Minn., USA and procollagen type I C-peptide enzyme immunoassay (EIA) kit, Takara Inc., Shiga, Japan) according to the manufacturer's instructions. Each sample was analyzed in triplicate.

[5] = test system: MMP-1; assay: MMP-1 level in medium by ELISA (Human Total MMP-1 Kit); type: cell-based; settings: NHDFs after UVB irradiation (144 mJ/cm^2), 72 hours, FIG. 2
Description: as §3

[6] = NHDFs after UVB irradiation, 72 hours, FIG. 3b
[7] = NHDFs prior to UVB irradiation, FIG. 3a

SMILES	mRNA expression of MMP-1 [1]	cytotoxicity [2]	mRNA expression of procollagen type I [3]	PIP levels [4, 6]	PIP levels [4, 7]	MMP-1 levels ([5]; 0.1 μg/ml)	MMP-1 levels ([5]; 1 μg/ml)
CC(=O)Cc1cc(=O)c2c(C)cc(O)c([C@@H]3O[C@H](CO)[C@@H](O)[C@H](O)[C@H]3O)c2o1 [aloesin]	decreased mRNA expression of MMP-1	decreased cytotoxicity	significantly increased mRNA expression of procollagen type I	significantly increased PIP levels	significantly increased PIP levels	significantly decreased MMP-1 levels	
COc1cc(C)c2c(=O)cc(C[C@H](C)O)oc2c1[C@@H]1O[C@H](CO)[C@@H](O)[C@H](O)[C@H]1OC(=O)/C=C/c1ccc(O)cc1 [isoaloeresin D]				significantly increased PIP levels	significantly increased PIP levels		significantly decreased MMP-1 levels
CC(=O)Cc1cc(=O)c2c(C)cc(O)c([C@@H]3O[C@H](CO)[C@@H](O)[C@H](O)[C@H]3OC(=O)/C=C/c3ccc(O)cc3)c2o1 [aloeresin A]				significantly increased PIP levels	significantly increased PIP levels		
